Reference: ChEMBL document CHEMBL1201862, “PubChem BioAssay data set” (2004)
Activity calls are given as the source filed them.

Columns and labels:
[1] = NIH-3T3 fibroblast cytotoxicity, dose response, cytotoxicity control, cell-based, fluorescence, Alamar Blue, secondary assay (AID 2327); assay type: functional;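 further: NIH-3T3 mouse fibroblasts cultured with fluconazole at 8 µg/mL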
[2] = C. albicans growth with fluconazole, confirmation, fluorescence, retest (AID 2467); assay type: functional, cell-based
[3] = inhibitors of intracellular T. cruzi replication, confirmation, NIH3T3 host cells, beta-gal luminescence (AID 2044); assay type: functional, cell-based;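 further: intracellular parasites grown in NIH/3T3 mouse fibroblasts as host cells; luminescent beta-galactosidase reporter signal from transgenic T. cruzi replicating inside host cells; inhibitors lower the luminescence signal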
[4] = growth suppression of PTEN-null colon cells, dose response, cell-based, HCT116 PTEN knockout (AID 1047); assay type: functional;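 further: HCT116 colon tumor cells with PTEN knocked out; cells exposed to compound for 60 hours before readout; potency for loss of cell viability measured by luminescence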
[5] = cytotoxicity toward NIH3T3 fibroblasts, dose response, counter-screen, cell-based, ATP luminescence, mouse fibroblasts (AID 2010); assay type: functional;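 further: cells exposed to compound for about 90 hours before reading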
[6] = growth suppression of beta-catenin-knockout colon cells, dose response, cell-based, HCT116, human colon tumor (AID 1045); assay type: functional;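 further: HCT116 colon tumor cells with beta catenin knocked out; cells exposed to compound for 60 hours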
[7] = system: Saccharomyces cerevisiae; assay: NALP1 inhibitor project selectivity study, Caspase-1/ASC signal blockade IC50 in S. cerevisiae (AID 488863); assay type: functional, organism-based
[8] = target: NACHT, LRR and PYD domains-containing protein 1 (Homo sapiens, UniProt Q9C000); assay: NALP1 inhibitors in yeast, dose response, luminescent (AID 488860); assay type: functional
[9] = target: Heat shock protein HSP 90-alpha (Homo sapiens, UniProt P07900); assay type: functional, organism-based
[10] = target: Mu-type opioid receptor (Homo sapiens, UniProt P35372); assay: SAR Analysis of Antagonists of the MOR Receptor using an Image-Based Assay - Set 3. [Related pubchem assays (depositor defined):AID1777, AID1785, AID1786, AID1966, AID2133, AID2136, AID2284, AID2285, AID2420]; assay type: functional
[11] = target: T1, Kappa-type opioid receptor (Homo sapiens, UniProt P41145); assay: SAR analysis of small molecule antagonists of the kappa opioid receptor via a luminescent beta-arrestin assay - Set 6. [Related pubchem assays (depositor defined):AID1777, AID1778, AID1785, AID1786, AID1966, AID2133, AID2136, AID2285]; assay type: functional
[12] = target: T1, Kappa-type opioid receptor; assay: SAR analysis of small molecule antagonists of the kappa opioid receptor via a luminescent beta-arrestin assay - Set 4. [Related pubchem assays (depositor defined):AID1777, AID1778, AID1785, AID1786, AID1966, AID2133, AID2136, AID2285]; assay type: functional
[13] = target: Delta-type opioid receptor (Homo sapiens, UniProt P41143); assay: SAR Analysis of Antagonists of the DOR Receptor using an Image-Based Assay - Set 3. [Related pubchem assays (depositor defined):AID1777, AID1785]; assay type: functional;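 further: U2OS cells expressing DOR1 and beta-arrestin GFP stimulated with 100 nM SNC80; imaging of GFP-tagged beta-arrestin moving into spots after receptor activation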
[14] = target: T1, Kappa-type opioid receptor; assay: SAR analysis of Antagonists of the Kappa Opioid Receptor (KOR) using an Image-Based Assay - Set 4. [Related pubchem assays (depositor defined):AID1777, AID1785]; assay type: functional
[15] = target: Beta-galactosidase (Escherichia coli, UniProt Q8VNN2); assay: beta-galactosidase enzyme inhibitors and activators, dose response, artefact control for CCR6 antagonist project, biochemical, E. coli enzyme, set 3 (AID 504712); assay type: functional
[16] = target: Nonstructural protein 1 (Influenza A virus, UniProt Q194T2); assay type: functional, Influenza A virus (A/California/07/2009(H1N1))
[17] = target: T2, Hexokinase HKDC1 (Homo sapiens, UniProt Q2TB90); assay: HKDC1 hexokinase inhibitors, dose response, biochemical, W721R variant (AID 504729); assay type: functional
T2 sequence (Q2TB90 whole entry): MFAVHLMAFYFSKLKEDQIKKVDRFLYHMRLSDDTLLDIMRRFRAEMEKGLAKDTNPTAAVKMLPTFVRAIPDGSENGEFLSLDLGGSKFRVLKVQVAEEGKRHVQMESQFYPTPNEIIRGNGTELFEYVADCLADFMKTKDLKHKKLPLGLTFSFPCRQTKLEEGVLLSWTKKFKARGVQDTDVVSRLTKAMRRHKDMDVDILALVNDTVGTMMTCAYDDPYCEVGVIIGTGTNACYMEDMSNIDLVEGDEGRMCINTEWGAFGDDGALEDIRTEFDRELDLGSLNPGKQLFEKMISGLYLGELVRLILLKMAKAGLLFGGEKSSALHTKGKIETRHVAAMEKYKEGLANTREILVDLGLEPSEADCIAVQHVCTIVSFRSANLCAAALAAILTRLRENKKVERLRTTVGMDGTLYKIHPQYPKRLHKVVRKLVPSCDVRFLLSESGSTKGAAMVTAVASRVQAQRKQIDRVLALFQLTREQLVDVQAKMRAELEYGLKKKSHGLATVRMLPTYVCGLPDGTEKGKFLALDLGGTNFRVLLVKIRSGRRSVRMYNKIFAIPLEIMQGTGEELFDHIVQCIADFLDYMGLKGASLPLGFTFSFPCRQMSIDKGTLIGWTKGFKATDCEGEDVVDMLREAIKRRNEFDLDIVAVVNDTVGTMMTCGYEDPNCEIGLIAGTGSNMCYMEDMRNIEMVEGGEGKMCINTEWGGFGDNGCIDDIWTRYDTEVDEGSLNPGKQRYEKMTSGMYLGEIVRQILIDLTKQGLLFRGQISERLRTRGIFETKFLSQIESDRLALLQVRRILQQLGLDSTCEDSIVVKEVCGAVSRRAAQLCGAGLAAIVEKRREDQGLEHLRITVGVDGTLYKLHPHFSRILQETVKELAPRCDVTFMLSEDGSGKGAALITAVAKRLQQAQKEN

[18] = system: Streptococcus sp. 'group A'; assay: growth inhibition of control SK(-) GAS strain, dose response, counter-screen for streptokinase expression inhibitor project, luminescence, kanamycin, BacTiterGlo, confirmation (AID 1900); assay type: functional, organism-based
[19] = target: NS3 (Hepatitis C virus, UniProt A3EZJ3); assay: PubChem AID 2173; set-up: species or system Hepacivirus hominis
[20] = system: Streptococcus; assay: Group A Streptococcus viability loss, dose response, counter-screen for streptokinase expression inhibitor project, luminescence, BacTiterGlo (AID 1915); assay type: functional, organism-based;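 further: potency for reduction of bacterial viability or growth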
[21] = target: T3, Caspase-3 (Homo sapiens, UniProt P42574); assay: procaspase-3 activators, dose response, biochemical, absorbance (AID 489014)
T3 sequence (P42574 whole entry): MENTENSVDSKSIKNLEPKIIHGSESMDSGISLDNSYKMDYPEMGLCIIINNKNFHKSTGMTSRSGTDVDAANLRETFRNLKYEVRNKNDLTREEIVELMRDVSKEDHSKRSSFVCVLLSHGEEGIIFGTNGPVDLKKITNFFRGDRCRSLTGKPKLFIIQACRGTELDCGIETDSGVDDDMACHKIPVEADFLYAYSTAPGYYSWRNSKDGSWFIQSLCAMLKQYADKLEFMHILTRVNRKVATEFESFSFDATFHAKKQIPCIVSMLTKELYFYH

[22] = target: Caspase-7 (Homo sapiens, UniProt P55210); assay: procaspase-7 activators, dose response, counter-screen for procaspase-3 activator project, biochemical, absorbance (AID 489013)
[23] = system: INS1; assay: beta cell apoptosis inhibitors, cytokine rescue, dose response, luminescence, retest (AID 449756); assay type: functional, cell-based; conditions: Rattus norvegicus, INS1;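 further: cell death triggered by IL-1 beta plus TNF-alpha plus IFN-gamma mixture; protective hits raise ATP signal compared with cytokine alone wells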
[24] = target: Albumin (Bos taurus, UniProt P02769); assay: Counterscreen for inhibitors of T-cell receptor (TCR)-CD3 interaction: Fluorescence-based biochemical high throughput dose response assay to identify inhibitors of T-cell receptor (TCR)-CD3 interaction using a TAMRA-labeled BSA probe.; assay type: functional
Albumin, sequence (P02769 whole entry): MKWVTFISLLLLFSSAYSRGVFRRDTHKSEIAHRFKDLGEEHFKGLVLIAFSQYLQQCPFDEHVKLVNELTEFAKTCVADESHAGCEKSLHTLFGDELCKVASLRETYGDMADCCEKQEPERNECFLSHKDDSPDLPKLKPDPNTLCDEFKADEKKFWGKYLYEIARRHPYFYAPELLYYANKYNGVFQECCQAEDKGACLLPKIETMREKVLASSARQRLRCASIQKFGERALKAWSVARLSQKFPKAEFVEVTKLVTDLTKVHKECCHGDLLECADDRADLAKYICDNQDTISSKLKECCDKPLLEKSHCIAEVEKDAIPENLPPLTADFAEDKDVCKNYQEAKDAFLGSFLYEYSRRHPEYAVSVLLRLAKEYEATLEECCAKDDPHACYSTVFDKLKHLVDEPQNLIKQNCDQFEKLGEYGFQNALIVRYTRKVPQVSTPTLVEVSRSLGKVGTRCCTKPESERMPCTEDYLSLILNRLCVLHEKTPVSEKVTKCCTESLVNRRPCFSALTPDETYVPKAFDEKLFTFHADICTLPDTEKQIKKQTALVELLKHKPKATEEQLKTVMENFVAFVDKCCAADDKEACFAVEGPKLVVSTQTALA

T1 sequence (P41145 whole entry): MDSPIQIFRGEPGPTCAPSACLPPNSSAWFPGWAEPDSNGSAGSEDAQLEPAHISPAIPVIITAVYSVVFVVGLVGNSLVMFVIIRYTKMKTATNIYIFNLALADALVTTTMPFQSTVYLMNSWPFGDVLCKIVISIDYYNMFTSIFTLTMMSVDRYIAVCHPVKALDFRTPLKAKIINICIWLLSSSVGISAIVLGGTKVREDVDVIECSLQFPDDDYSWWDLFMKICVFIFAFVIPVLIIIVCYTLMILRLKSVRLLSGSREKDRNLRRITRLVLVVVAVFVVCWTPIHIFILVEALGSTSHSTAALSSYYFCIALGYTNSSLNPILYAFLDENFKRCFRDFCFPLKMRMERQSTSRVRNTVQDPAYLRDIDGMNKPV
Beta-galactosidase, sequence (Q8VNN2 whole entry): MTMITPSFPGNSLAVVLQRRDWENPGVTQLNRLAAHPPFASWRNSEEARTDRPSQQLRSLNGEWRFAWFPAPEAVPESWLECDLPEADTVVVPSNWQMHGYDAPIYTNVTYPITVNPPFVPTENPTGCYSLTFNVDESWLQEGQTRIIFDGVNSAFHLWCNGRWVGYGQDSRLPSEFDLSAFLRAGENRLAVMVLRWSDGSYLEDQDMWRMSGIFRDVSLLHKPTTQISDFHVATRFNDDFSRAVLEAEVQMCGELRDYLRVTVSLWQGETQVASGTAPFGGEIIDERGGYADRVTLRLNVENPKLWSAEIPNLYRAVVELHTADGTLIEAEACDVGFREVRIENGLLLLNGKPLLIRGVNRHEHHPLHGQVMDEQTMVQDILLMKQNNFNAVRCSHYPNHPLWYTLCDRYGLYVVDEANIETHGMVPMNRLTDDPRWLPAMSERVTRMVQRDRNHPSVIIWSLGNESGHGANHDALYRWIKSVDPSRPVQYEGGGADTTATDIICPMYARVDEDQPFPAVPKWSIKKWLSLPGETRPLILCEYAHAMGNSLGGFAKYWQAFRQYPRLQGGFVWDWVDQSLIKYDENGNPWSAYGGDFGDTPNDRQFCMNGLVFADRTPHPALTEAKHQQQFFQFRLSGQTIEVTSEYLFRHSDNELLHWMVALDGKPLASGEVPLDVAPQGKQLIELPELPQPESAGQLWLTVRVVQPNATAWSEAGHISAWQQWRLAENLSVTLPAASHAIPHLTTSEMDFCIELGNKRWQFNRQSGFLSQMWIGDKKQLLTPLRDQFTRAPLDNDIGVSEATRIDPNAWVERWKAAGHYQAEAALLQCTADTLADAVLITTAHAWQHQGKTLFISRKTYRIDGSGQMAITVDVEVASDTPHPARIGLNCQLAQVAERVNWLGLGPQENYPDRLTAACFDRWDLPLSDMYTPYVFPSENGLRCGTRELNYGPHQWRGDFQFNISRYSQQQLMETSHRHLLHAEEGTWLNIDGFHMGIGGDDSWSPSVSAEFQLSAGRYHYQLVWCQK
Nonstructural protein 1, sequence (Q194T2 whole entry): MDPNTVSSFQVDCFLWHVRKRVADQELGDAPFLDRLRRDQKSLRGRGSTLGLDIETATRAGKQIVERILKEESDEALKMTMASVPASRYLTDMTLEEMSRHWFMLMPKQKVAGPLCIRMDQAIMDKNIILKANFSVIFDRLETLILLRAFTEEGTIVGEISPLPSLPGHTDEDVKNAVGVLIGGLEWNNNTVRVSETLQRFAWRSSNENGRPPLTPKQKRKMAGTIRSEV
Caspase-7, sequence (P55210 24-198 limits assumed): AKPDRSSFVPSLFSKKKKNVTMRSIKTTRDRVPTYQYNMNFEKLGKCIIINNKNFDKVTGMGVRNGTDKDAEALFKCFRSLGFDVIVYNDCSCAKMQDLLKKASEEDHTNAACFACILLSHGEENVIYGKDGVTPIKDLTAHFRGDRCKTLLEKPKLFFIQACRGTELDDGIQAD
Caspase-7, sequence (P55210 207-303 limits assumed): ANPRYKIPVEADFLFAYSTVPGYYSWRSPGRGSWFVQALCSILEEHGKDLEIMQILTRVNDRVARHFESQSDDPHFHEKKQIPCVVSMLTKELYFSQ
Delta-type opioid receptor, sequence (P41143 whole entry): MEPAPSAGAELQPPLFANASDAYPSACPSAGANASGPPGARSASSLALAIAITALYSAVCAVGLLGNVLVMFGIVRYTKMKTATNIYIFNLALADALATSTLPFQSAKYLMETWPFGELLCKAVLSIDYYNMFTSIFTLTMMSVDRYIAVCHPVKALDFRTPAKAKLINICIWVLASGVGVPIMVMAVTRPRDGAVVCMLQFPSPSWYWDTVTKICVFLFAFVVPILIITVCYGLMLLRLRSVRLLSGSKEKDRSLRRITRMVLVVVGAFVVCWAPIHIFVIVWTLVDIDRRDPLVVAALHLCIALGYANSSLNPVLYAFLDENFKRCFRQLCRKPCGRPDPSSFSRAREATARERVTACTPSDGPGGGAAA
Mu-type opioid receptor, sequence (P35372 whole entry): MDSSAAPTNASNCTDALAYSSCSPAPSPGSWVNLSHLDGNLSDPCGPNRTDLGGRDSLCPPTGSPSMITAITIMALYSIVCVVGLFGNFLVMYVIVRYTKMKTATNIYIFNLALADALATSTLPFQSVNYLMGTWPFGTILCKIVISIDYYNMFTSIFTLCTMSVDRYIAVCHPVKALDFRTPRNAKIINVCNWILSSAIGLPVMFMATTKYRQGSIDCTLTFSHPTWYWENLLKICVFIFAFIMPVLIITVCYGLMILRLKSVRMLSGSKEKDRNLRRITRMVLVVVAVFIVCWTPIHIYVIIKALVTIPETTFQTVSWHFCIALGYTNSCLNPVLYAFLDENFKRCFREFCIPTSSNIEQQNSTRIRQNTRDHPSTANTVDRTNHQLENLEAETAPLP
NACHT, LRR and PYD domains-containing protein 1, sequence (Q9C000 1-1212 limits assumed): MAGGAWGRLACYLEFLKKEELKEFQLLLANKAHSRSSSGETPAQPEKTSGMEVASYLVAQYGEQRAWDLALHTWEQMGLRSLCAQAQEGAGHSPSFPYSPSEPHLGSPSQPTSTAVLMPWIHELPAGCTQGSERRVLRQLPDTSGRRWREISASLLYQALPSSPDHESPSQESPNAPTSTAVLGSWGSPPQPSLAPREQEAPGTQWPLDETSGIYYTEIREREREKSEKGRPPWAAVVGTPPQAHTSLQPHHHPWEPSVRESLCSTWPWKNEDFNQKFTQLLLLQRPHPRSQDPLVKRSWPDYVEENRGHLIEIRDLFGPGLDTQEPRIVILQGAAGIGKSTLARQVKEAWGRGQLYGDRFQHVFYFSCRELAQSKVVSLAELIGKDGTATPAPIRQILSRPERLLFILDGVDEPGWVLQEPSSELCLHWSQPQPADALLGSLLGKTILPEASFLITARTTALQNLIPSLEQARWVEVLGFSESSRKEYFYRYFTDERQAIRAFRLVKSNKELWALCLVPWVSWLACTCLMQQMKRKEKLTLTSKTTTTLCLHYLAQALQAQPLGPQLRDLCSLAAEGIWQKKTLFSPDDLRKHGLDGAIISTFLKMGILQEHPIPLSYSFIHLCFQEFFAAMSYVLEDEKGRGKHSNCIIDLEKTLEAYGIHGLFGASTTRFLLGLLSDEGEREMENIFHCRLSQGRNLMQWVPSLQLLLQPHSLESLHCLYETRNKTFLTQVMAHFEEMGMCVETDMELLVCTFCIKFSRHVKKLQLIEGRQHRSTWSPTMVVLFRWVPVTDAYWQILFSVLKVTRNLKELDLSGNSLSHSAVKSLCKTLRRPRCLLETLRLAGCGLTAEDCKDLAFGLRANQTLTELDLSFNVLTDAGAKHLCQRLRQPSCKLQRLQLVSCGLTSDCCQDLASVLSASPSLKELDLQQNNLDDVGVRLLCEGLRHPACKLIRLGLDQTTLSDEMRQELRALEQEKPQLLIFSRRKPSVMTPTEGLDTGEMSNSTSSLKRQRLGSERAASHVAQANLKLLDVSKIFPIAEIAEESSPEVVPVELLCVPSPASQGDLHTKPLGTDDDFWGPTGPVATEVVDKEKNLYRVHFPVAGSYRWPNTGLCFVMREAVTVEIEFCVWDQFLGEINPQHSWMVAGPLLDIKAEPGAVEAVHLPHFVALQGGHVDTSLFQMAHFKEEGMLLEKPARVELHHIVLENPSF
NACHT, LRR and PYD domains-containing protein 1, sequence (Q9C000 1213-1473 limits assumed): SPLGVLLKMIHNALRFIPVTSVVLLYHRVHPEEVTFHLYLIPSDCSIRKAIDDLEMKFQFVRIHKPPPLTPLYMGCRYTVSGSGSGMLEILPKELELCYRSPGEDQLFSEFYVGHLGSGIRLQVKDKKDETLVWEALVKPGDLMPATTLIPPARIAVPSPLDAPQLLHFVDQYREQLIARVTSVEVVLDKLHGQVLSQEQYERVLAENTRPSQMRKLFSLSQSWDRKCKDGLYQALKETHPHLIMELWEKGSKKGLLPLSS

## Cc1ccc(-n2nnnc2C(Cl)c2nnnn2-c2ccc(C)cc2)cc1
[1]
  EC50: > 160 µM (inactive)
[2]
  EC50: > 38 µM (not active)
[3]
  EC50: 3.31 µM (active)
[4]
  EC50: 17.6 µM (active)
[5]
  EC50: > 60 µM (not active)
[6]
  EC50: 17.5 µM (active)
[7]
  IC50: 6.59 µM (active)
[8]
  IC50: 11 µM (active)
[9]
  AC50: 0.635 µM (active)

## Cc1ccc(S(=O)(=O)N2CCc3cc(C(=O)NCCN(Cc4ccccc4)C(C)C)ccc3C2)cc1
[10]
  IC50: 15.1 µM (inactive)
[11]
  IC50: 0.0675 µM (active)
[12]
  IC50: 0.0467 µM (active)
[13]
  IC50: > 32 µM (inactive)
[14]
  IC50: < 0.0031 µM (active)

## CCOC(=O)C1=C(Cc2ccc(OC)cc2)C(=O)c2ccccc2C1=O
[15]
  IC50: > 66.6 µM (inactive)
[16]
  IC50: 42.9 µM (active)
[17]
  IC50: 7.57 µM (active)

## Oc1c(Br)cc(Br)cc1/C=N/NC(=S)N[C@H]1CC2C=CC1C2 (some centres undefined)
[18]
  EC50: 0.109 µM (active)
[19]
  IC50: 7.8 µM (active)
[20]
  EC50: 0.448 µM (active)
[21]
  EC50: > 9.47 µM (active)
[22]
  EC50: > 85.3 µM (inactive)
[23]
  AC50: 2 µM (active)
[24]
  IC50: > 94.1 µM (inactive)
